This is an account of results in patent publication US20230277125A1, “BREATH-BASED THERAPEUTIC DRUG MONITORING METHOD” (UNIVERSITÄTS-KINDERSPITAL BEIDER BASEL, priority 2020, published 2023).

The nature of series [1]: Blood-based therapeutic drug monitoring of serum valproate (immunoassay total, GC-MS free). The class given is in vivo, human. An excerpt: FIG. 2 presents an analysis pipeline that includes constructing a response vector matrix, splitting the dataset into training and test set, applying feature reduction analysis to […] in order to identify predictors, training mathematical model based on selected predictors, applying selected predictors and mathematical model to the test set to determine the concentration of valproate in a subject, which matches well the serum concentration determined using the blood analysis, as determined in an immunoassay (total valproate concentration) and by GC-MS (free valproate concentration).
The range of pharmacotherapies is described in AED rows. The patients were receiving either a single drug or combinations of up to three drugs. The bottom three rows identify the clinical outcome as described by side effects (mild or severe), drug response (responder or non-responder), and EEG (normal or abnormal). The grey bars on the top show the concentrations (mg/L) of free and total serum VPA (level 0 was assigned to all the measurements of subjects' not taking VPA, missing bars in free VPA represents the unavailability of data). Dark (light) grey bars indicate that the measurements were outside (inside) the therapeutic range (i.e. 50-100 mg/L for total and 5-10 mg/L for free VPA). Thus, for example, patient 20 suffers from DEE. During the first visit (i.e. 20-1), the patient was receiving a combination of LTG, LEV, and VPA. Total serum VPA concentration was 104 mg/L (i.e. beyond the therapeutic range) and free serum VPA could not be measured. At this point in time, the patient had only mild side effects, but was not responding to the medication, and EEG was abnormal. On the second visit, the patient was unable to perform breath test. During the third visit (i.e. 20-3), LEV had been removed, total serum VPA concentration was 108 mg/L and free serum VPA concentration was 12.7 mg/L (both levels above the therapeutic range). Side effects were still mild, EEG was back to normal, but the patient was still not responding to the pharmacotherapy. AED=antiepileptic drugs, EEG=electroencephalography, VPA=valproic acid, LTG=lamotrigine, and LEV=levetiracetam.
59 subjects (32 males and 27 females) between the ages of 4 and 20 (see FIG. 12A for details), undergoing treatment with antiepileptic drugs (AEDs) with the necessity of therapeutic drug monitoring (TDM) were enrolled in the study Immediately after blood drawn for TDM, subjects performed prolonged exhalations directly into SESI-HRMS system, comprising SUPER-SESI ionization device (Fossil Ion Technology, Spain) coupled to a Q Exactive Plus HRMS (Thermo Fisher Scientific, Germany). During the course of study, wherever blood-based TDM were performed, subjects also provided exhalations, leading to multiple measurements from some subjects. In total 75 successful measurements (from 48 subjects) were performed. […] In order to determine the feasibility of TDM of an example drug valproate by using mass spectroscopy of samples of breath exhaled by subjects, the subjects were divided into two groups i.e. valproate users and non-valproate users. […] Moreover, a different relationship between total valproate serum concentration and valproate dose for subjects with mono and multi-therapy compared to that known in the literature (Duran, 1993) was observed (FIG. 12D).

For series [2] the following is noted: human, in vivo. The source says: It will be further noted that according to the methods of the present invention it is possible to measure the level of metabolites that belong to different metabolic pathways. Therefore, by measuring the level of said metabolites and comparing them with each other, it is also possible to compare the activities of said different metabolic pathways. […] FIG. 3 presents the time dependence of the relative activity of two oxidation pathways of valproate, β-oxidation that leads to 3-heptanone, and ω1-oxidation that results in 2-propyl-4-pentanolactone. The activities of both oxidation pathways are presented herein as a ratio between the nAUC parameters for m/z peaks due to compounds belonging to each of the pathways, and presented in a logarithmic scale. Both increase of in 2-propyl-4-pentanolactone to 3-heptanone ratio, as well as decrease thereof can be observed over time, and observed ratios span more than 100-fold range. Herein, values of nAUC parameters for the m/z peaks due to both 3-heptanone and 2-propyl-4-pentanolactone (accordingly, peaks at m/z of 115.11176 and 143.10659 in FIG. 14) are predictors for the previously trained mathematical model of the present invention.
FIG. 3 presents the time dependence of the relative activity of two oxidation pathways of valproate, β-oxidation that leads to 3-heptanone, and […] that results in 2-propyl-4-pentanolactone. […]

For series [3] the following is noted: human subject; cited from earlier work.
Where [4] appears, read: patient 20, third visit (20-3), LEV removed.

With `CCCC(CCC)C(=O)O` [VPA, Valproic acid], in series [1] (FIG. 12D), the “total valproate for a given dose, multi-therapy vs mono-therapy” value was “lower than those of mono-therapy”. In series [1] (ages 4 to 20, FIG. 12C), the “relationship between participants' age and serum free valproate fraction” value is “inversely proportional relationship”. For the same compound, the “total serum VPA concentration” value in series [1] (patient 20, first visit (20-1), combination of LTG, LEV and VPA) amounted to 104 mg/L. In series [1] (setting [4]), the “free serum VPA concentration” value was 12.7 mg/L and the “total serum VPA concentration” value stood at 108 mg/L. In addition, in series [1] (study participants, FIG. 12B), the “relationship between serum concentrations of free and total valproate” value was “non-linear relationship”. In series [2], the “span of observed 2-propyl-4-pentanolactone to 3-heptanone ratios” value is recorded as “more than 100 fold”. In series [3], the “fraction directly excreted in urine without chemical modification” value was “Less than three percent”; the “fraction modified with coenzyme A and shuttled to mitochondria (β-oxidation, 3-oxovalproate)” value was 12%; the “fraction oxidised at position 4 (4-hydroxyvalproate)” value is 2.7%; the “fraction oxidised at position 5 (5-hydroxyvalproate)” value is 2.3%. For the same compound, the “fraction undergoing direct glucuronidation” value in series [3] is on record as 80%.
